*1 amine or outer side, *2 acyl side, *3 side chain or, on linkers, in order; H or OH if unused. Where a SMILES comes first, the peptide text is derived from it. Bridges are numbered along the chain shown (N, C = ends). [ ]: non-standard residue; d: D form. The star is where a group is joined. Met(S-mXyl) = C[S+](CC[C@H](N[*:1])C(=O)[*:2])Cc1cccc(C[*:3])c1; 5FAM = O=C1OC2(c3ccc(O)cc3Oc3cc(O)ccc32)c2ccc(C(=O)*)cc21
How the values were obtained:
cJun = cJun (Homo sapiens, UniProt P05412); experiment: Western blot of cJun levels in cell lysate after peptide addition; format: biochemical; design: endogenous in cells; host or cells: SK-MEL-28; settings: SK-MEL-28 cell lysate with protease inhibitor cocktail, 30 µM peptide, 37 °C, 5 mM TCEP, pH 7.4, western blot over time
Chain of cJun (P05412 whole entry): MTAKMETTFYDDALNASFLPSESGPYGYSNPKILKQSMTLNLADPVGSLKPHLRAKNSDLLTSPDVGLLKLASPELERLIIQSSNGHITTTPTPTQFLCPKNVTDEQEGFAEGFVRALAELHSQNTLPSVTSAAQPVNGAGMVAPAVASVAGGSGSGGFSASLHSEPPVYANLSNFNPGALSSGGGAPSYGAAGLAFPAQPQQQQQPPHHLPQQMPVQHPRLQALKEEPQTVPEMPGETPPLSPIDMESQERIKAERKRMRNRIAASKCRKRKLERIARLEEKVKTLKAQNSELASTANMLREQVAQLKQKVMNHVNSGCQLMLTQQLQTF
Protocol: Figure S25 – cJun protein levels in SK-MEL-28 cell lysate (with the addition of Roche cOmplete protease inhibitor cocktail) upon addition of 30 µM FAM-HW33-NLSTAT, determined over time by western blot. Cells were lysed by sonication in 20 mM KP, 150 mM NaCl, 5 mM TCEP, pH 7.4 and incubated at 37°C after peptide addition. Uncropped blots are also shown.

SK-MEL-28 cells [1] = experiment: MTT cell viability assay; format: cell-based, human; settings: SK-MEL-28, 30 µM
Protocol: Cell viability assay: Cells were seeded at 15,000 cells per well in a 96-well plate and incubated for 24 hours before treatment with vehicle (1% DMSO in water) or peptide for 6 or 24 hours. The media was removed and the cells were washed twice with PBS before 50 µL of MTT (1 mg/mL in PBS, Merck) was added and incubated at 37°C for 30 minutes. The MTT solution was removed and 100 µL isopropanol was added to each well and rocked at room temperature for 5 minutes. Absorbance at 595 nm was measured using a Clariostar plate reader. Unless otherwise stated, all data are reported as an average of three independent biological experiments, with each data point determined in triplicate (i.e. 9 measurements) and reported as the mean with errors given as one standard deviation. For data with one independent measurement, each data point was determined in triplicate i.e. 3 measurements and reported as the mean with errors given as one standard deviation.

SK-MEL-28 cells [2] = experiment: Cell imaging of FAM-peptide uptake; format: cell-based, human; settings: SK-MEL-28, 10 and 30 µM, 6 h, 37 °C, fixed, DAPI counterstain, fluorescence microscopy
Protocol: Cell imaging: Cells were seeded at 40,000 cells per well in a […] and incubated for 24 hours before treatment with vehicle (1% DMSO in water) or peptide for 6 hours. The media was removed and the cells were washed 3x with PBS. 1 mL of paraformaldehyde (80 mg/mL in PBS) was added and incubated at room temperature for 10 minutes. The paraformaldehyde was removed and fixed cells were washed with 3x PBS. 500 µL of DAPI (1 µg/mL) was then added and incubated at room temperature for 5 minutes following by a 3x PBS wash. Cells were imaged using an Evos FL digital inverted fluorescence microscope using brightfield and both GFP (for the FAM label) and DAPI fluorescence filters.

cJun/TRE DNA = target: T1, cJun/TRE DNA (Homo sapiens, UniProt P05412); experiment: CD cJun/TRE DNA antagonism assay (TRE DNA signal at 281 nm); format: biochemical
T1 construct: LC-MS analysis of the cJun bZIP domain; made in house
T1 sequence (P05412 252-315 limits assumed): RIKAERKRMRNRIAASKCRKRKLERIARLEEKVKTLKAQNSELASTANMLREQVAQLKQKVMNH
Excerpt: CD antagonism experiments were next carried out, as previously described,^[ [13], [18] ^] whereby the structure of a TRE DNA duplex was monitored by following a peak at 281 nm, which shifts upon binding to cJun. The introduction of antagonist to the sample causes the peak to shift back to its unbound signal in a dose‐dependent manner as the cJun is sequestered, leaving unbound DNA in its original structure (Figure S9, Supporting Information). As there is no protein absorbance in this region of the CD spectrum, this measures DNA structure only and produces a simple readout of the proportion of free/cJun‐bound DNA at different antagonist concentrations. By fitting these plots to a Hill equation (OriginPro), IC50 values for HW1, HW29, and HW31 were determined in both reducing and oxidizing conditions (Table S1, Supporting Information; Figure 3C).
Circular dichroism (CD): An Applied Photophysics Chirascan was used for CD measurements, with a 200 µL sample in a 1 mm path length CD cell. Protein/DNA samples were suspended in 20 mM potassium phosphate,150 mM potassium fluoride at pH 7.4 with or without 5 mM TCEP. cJun was added to TRE DNA (5’-[…], Merck) before addition of antagonist peptide and these samples were equilibrated for 30 minutes before measurement.^[13] For full spectra, three scans between 190 and 260 nm (265-320 nm for DNA binding experiments) were collected with a bandwidth of 1 nm and data sampled at a rate of 0.5 s^-1. These scans were averaged and converted to molar residue ellipticities (MRE). Thermal denaturation experiments were performed by measuring the ellipticity at 222 nm over a 1 to 95°C gradient at 1°C increments. Post-melt scans at 20°C confirmed the transitions were reversible as they overlaid within 5% of the pre-melt scan. The resulting thermal denaturation curves were converted to MRE and fitted to a two-state model, derived via modification of the Gibbs–Helmholtz equation to determine the melting temperature (Tm) ^[26].

cJun/FAM-TRE DNA = target: T2, cJun/FAM-TRE DNA (Homo sapiens, UniProt P05412); experiment: Fluorescence polarisation cJun/FAM-TRE DNA antagonism time course; format: biochemical; settings: 10 nM FAM-TRE, 625 nM cJun, peptide 10000-20 nM, 5 mM TCEP, pH 7.4; quadruplicate
T2 construct: LC-MS analysis of the cJun bZIP domain; made in house
T2 sequence (P05412 252-315 limits assumed): as above

CREB1 = CREB1 (Homo sapiens, UniProt P16220); experiment: Selectivity: incubation with CREB1 monitored by SDS-PAGE; format: biochemical; settings: HW33 40 µM + CREB1 20 µM, 24 h
Chain of CREB1 (P16220 whole entry, species assumed, the tested form may be a part): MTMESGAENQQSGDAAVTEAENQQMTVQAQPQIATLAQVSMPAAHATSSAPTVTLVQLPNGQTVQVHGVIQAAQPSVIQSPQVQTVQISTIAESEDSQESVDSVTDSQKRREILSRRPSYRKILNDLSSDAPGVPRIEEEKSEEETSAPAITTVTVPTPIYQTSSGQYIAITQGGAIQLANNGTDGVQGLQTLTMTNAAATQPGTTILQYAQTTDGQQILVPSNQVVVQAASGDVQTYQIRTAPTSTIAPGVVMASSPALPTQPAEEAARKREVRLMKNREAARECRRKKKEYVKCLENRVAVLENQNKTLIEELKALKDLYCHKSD
Protocol: The selectivity of this reaction, which is highly proximity‐driven, was first investigated by incubating HW33 (40 µM) with CREB1 (20 µM), a closely related bZIP‐containing TF that contains a Cys residue at the same position within the bZIP domain as cJun. Moreover, CREB1 contains two additional Cys residues located within the LZ domain that are not found within cJun. […] To further investigate HW33 selectivity for cJun, a reaction was next undertaken in SK‐MEL‐28 human melanoma cell lysate using FAM‐HW33, in which the N‐terminal acetyl group of HW33 was replaced with carboxyfluorescein to allow for peptide detection (Figure S17, Supporting Information). Samples containing cJun bZIP (20 µM) and FAM‐HW33 (20 µM) were incubated with or without lysate (10 µg) at 37 °C for 4 h before analysis by SDS‐PAGE (Figure 4E). […]
Covalent conjugation assays: Initial tests were performed by incubation of HW32 and HW33 (40 µM) with cJun bZIP (20 µM) in 50 mM potassium phosphate butter, 150 mM NaCl, pH 7.4 at 37°C, shaking at 450 rpm. […] The samples were analysed by LC-MS on a Luna C18(2) column (5-μm particle size, 100 Å pore size, 150 × 4.6 mm; Phenomenex). The % occupancy was determined by the ratio of conjugated cJun over total cJun as determined by the area under the peaks in the chromatogram measured at a 215 nm wavelength, with their identity confirmed by ESI-MS. […]

| Compound | cJun depletion in cell lysate (cJun) | Fold larger reduction in cell viability relative to HW1 (SK-MEL-28 cells [1]) | Cellular uptake (FAM fluorescence within cells) (SK-MEL-28 cells [2]) | Fold increase in antagonism over the 4 h time course (cJun/TRE DNA; CD antagonism time course) | Time dependence of CD antagonism compared with HW1 (cJun/TRE DNA; IC50 plotted over time) | Time dependence of FP antagonism compared with HW1 (cJun/FAM-TRE DNA) | Conjugation with CREB1 (CREB1) |
| --- | --- | --- | --- | --- | --- | --- | --- |
| 5FAM-E[Met(S-mXyl)]EELCVEEDVLEEEIEQLEERNYALRKEIKDLQDQPKKKRKVYGRKKRRQRRR-NH2 (thioether 2-6; lactam 31-35) [FAM-HW33-NLSTAT] | cJun depletion effect was also observed in cell lysate | 2.2 x | FAM fluorescence was observed within the cells | – | – | – | – |
| CC[C@H](C)[C@H](NC(=O)[C@H](CCC(=O)O)NC(=O)[C@H](CCCCN)NC(=O)[C@H](CCCNC(=N)N)NC(=O)[C@H](CC(C)C)NC(=O)[C@H](C)NC(=O)[C@H](Cc1ccc(O)cc1)NC(=O)[C@H](CC(N)=O)NC(=O)[C@H](CCCNC(=N)N)NC(=O)[C@H](CCC(=O)O)NC(=O)[C@H](CCC(=O)O)NC(=O)[C@H](CC(C)C)NC(=O)[C@H](CCC(N)=O)NC(=O)[C@H](CCC(=O)O)NC(=O)[C@@H](NC(=O)[C@H](CCC(=O)O)NC(=O)[C@H](CCC(=O)O)NC(=O)[C@H](CCC(=O)O)NC(=O)[C@H](CC(C)C)NC(=O)[C@@H](NC(=O)[C@H](CC(=O)O)NC(=O)[C@H](CCC(=O)O)NC(=O)[C@H](CCC(=O)O)NC(=O)[C@@H](NC(=O)[C@@H]1CSCc2cccc(c2)C[S+](C)CC[C@H](NC(=O)[C@H](CCC(=O)O)NC(C)=O)C(=O)N[C@@H](CCC(=O)O)C(=O)N[C@@H](CCC(=O)O)C(=O)N[C@@H](CC(C)C)C(=O)N1)C(C)C)C(C)C)[C@@H](C)CC)C(=O)N[C@H]1CCCCNC(=O)C[C@@H](C(=O)N[C@@H](CCC(N)=O)C(N)=O)NC(=O)[C@H](CCC(N)=O)NC(=O)[C@H](CC(C)C)NC(=O)[C@H](CC(=O)O)NC1=O (stereo partly shown) [HW33] (Ac-E[Met(S-mXyl)]EELCVEEDVLEEEIEQLEERNYALRKEIKDLQDQ-NH2; thioether 2-6; lactam 31-35) | – | – | – | 5 fold | improved antagonism over HW1 after 60 min | improved antagonism over HW1 after 240 minutes | no conjugation observed |

— paper PMC12079500, “An Intracellular Peptide Library Screening Platform Identifies Irreversible Covalent Transcription Factor Inhibitors” (Advanced Science, 2025)
